In article PMC6268433, “New Sorafenib Derivatives: Synthesis, Antiproliferative Activity Against Tumour Cell Lines and Antimetabolic Evaluation” (Molecules, 2012):
Like-named read-outs stand apart in the source and are kept apart here.

Experiments:
[1] = test system: DNA synthesis in CEM cells; assay: Antimetabolic activity: [CH3-3H]dThd incorporation (DNA synthesis) in CEM cell cultures; format: cell-based; conditions: Homo sapiens, CCRF-CEM, ~20 h, TCA-insoluble material
Excerpt: (§1) A variety of compounds (2a, 3a, 4a with a cycloalkyl substituent directly attached to nitrogen atom, 2c, 3c, 4c with a cycloalkyl bound to nitrogen through a short spacer and 2e, 3e, 4e with an aromatic substituent) have been investigated on their inhibitory activity against DNA, RNA and protein synthesis in CEM cell cultures. The compounds were equally inhibitory to dThd (DNA synthesis), Urd (RNA synthesis) and Leu (protein synthesis) incorporation into TCA-insoluble cell material. The 2 series of compounds were least inhibitory whereas the 4 series were most inhibitory (IC50 in the lower micromolar range). Their antimetabolic IC50 values closely corresponded to their antiproliferative IC50 values. They also behaved as sorafenib in terms of antimetabolic potential (Table 3).
(§2) The procedures have been modified from previously described methods. Human CEM cells were seeded in 96-well microtiter plates at 10 × 10^4 cells/200 µL-well in the presence of serial dilutions of the tested compounds. Then, 0.25 µCi of [CH3-^3H]dThd (radiospecificity: 52 Ci/mmol) or 1 µCi of [5-^3H]Urd (radiospecificity: 26 Ci/mmol) or [4,5-^3H]Leu (radiospecificity: 160 Ci/mmol) were added and the drug-exposed tumour cell cultures further incubated at 37 °C for ~20 h. Then the content of each well was transfered to glass fiber discs (Wattman, GE Healthcare, Maidstone, UK), mounted on a manifold (Millipore, Billerica, MA, USA) and subsequently washed with PBS (to remove the radiolabel material that has not been incorporated in the cellular macromolecules), 10% and 5% trichoroacetic acid (TCA) (to precipitate DNA, RNA and proteins) and ethanol. Then, the radioactivity (TCA precipitate) associated with each disc was determined in a liquid scintillation counter (Packard, Palo Alto, CA, USA).

[2] = test system: protein synthesis in CEM cells; assay: Antimetabolic activity: [4,5-3H]Leu incorporation (protein synthesis) in CEM cell cultures; format: cell-based; conditions: Homo sapiens, CCRF-CEM, ~20 h, TCA-insoluble material
Excerpt: as §1, §2

[3] = test system: RNA synthesis in CEM cells; assay: Antimetabolic activity: [5-3H]Urd incorporation (RNA synthesis) in CEM cell cultures; format: cell-based; conditions: Homo sapiens, CCRF-CEM, ~20 h, TCA-insoluble material
Excerpt: as §1, §2

[4] = test system: panel of carcinoma, lymphoma and leukemia tumour cell lines; assay: Cytostatic activity across the panel of tumour cell lines; format: cell-based; conditions: Table 2; read-out: IC50 (cytostatic effect, range over cell lines)
Protocol: The experiments were carried out on six human tumour and one murine cell lines, which are derived from five solid tumour types and two (one murine and one human) suspension tumour cell lines. The following cell lines were used: HCT 116 (colon carcinoma), SW 620 (colon carcinoma), MCF-7 (breast carcinoma), H 460 (lung carcinoma), L1210 (murine leukemia), CEM (human lymphoma) and HeLa (cervix carcinoma). […] Compounds 3d and 3e with a benzene ring in the amide moiety, exerted a somewhat stronger (but still rather poor) cytostatic effect (IC50 ≈ 20-90 µM). […] The compounds were also equally cytostatic against primary human embryonic lung (HEL) fibroblast cells (Table 2). […]
HCT 116, SW 620, MCF-7, and H 460 cells were cultured as monolayers and maintained in Dulbecco’s modified Eagle medium (DMEM), supplemented with 10% fetal bovine serum (FBS), 2 mmol·L^–1 L-glutamine, 100 U·mL^–1 penicillin and 100 μg·mL^–1 streptomycin in a humidified atmosphere with 5% CO2 at 37 °C. The growth inhibition activity was assessed as described previously, according to the slightly modified procedure of the National Cancer Institute, Developmental Therapeutics Program. […] After 72 h of incubation, the cell growth rate was evaluated by performing the MTT assay (Promega) which detects dehydrogenase activity in viable cells. The absorbency (OD, optical density) was measured on a microplate reader at 570 nm. […]

HeLa (cervix carcinoma) = assay: Cytostatic activity, Coulter counter; format: cell-based, human; conditions: 72 h, cell number by Coulter counter, read-out: Tumour cell growth/IC50 HeLa
Protocol: (§3) The experiments were carried out on six human tumour and one murine cell lines, which are derived from five solid tumour types and two (one murine and one human) suspension tumour cell lines. The following cell lines were used: HCT 116 (colon carcinoma), SW 620 (colon carcinoma), MCF-7 (breast carcinoma), H 460 (lung carcinoma), L1210 (murine leukemia), CEM (human lymphoma) and HeLa (cervix carcinoma). […] Compounds 3d and 3e with a benzene ring in the amide moiety, exerted a somewhat stronger (but still rather poor) cytostatic effect (IC50 ≈ 20-90 µM). […] The compounds were also equally cytostatic against primary human embryonic lung (HEL) fibroblast cells (Table 2). The obtained data clearly point to the obligatory presence of the [4-chloro-3-(trifluoromethyl)phenyl]carbamoyl group being crucial for high potency. Also, the 4a–e series of compounds are far more lipophilic than the 2 and 3 series of compounds, which may be related to their increased cytostatic potential.
(§4) The cytostatic activity of the tested compounds against murine leukemia L1210, human cervix carcinoma HeLa, human embrionic lung (HEL) and T-lymphocyte CEM cells was determined with cells grown in suspension (L1210, CEM) or monolayers (HeLa, HEL) in 200 µL-wells of 96-well microtiter plates (initial cell number: 5–7.5 × 10^4 cells/well). After 48 (L1210) or 72 (CEM, HeLa, HEL) h, the tumour cell number was determined by the use of a Coulter counter.

L1210 (murine leukemia) = assay: Cytostatic activity, Coulter counter; format: cell-based; conditions: 48 h, cell number by Coulter counter, read-out: Tumour cell growth/IC50 L1210
Protocol: as §3, §4

CEM (human lymphoma) = assay: Cytostatic activity, Coulter counter; format: cell-based; conditions: 72 h, cell number by Coulter counter, read-out: Tumour cell growth/IC50 CEM
Protocol: as §3, §4

[5] = test system: primary human embryonic lung (HEL) fibroblast cells; assay: Cytostatic activity, Coulter counter; format: cell-based; conditions: 72 h, cell number by Coulter counter, primary fibroblasts
Protocol: as §3, §4

MCF-7 (breast carcinoma) = assay: Cytostatic activity, MTT assay; format: cell-based, human; conditions: read-out: Tumour cell growth/IC50 MCF-7
Protocol: as §3
(§5) HCT 116, SW 620, MCF-7, and H 460 cells were cultured as monolayers and maintained in Dulbecco’s modified Eagle medium (DMEM), supplemented with 10% fetal bovine serum (FBS), 2 mmol·L^–1 L-glutamine, 100 U·mL^–1 penicillin and 100 μg·mL^–1 streptomycin in a humidified atmosphere with 5% CO2 at 37 °C. The growth inhibition activity was assessed as described previously, according to the slightly modified procedure of the National Cancer Institute, Developmental Therapeutics Program. Briefly, the cells were seeded onto standard 96-well microtiter plates on day 0. The cell concentrations were adjusted according to the cell population doubling time (PDT): 3000 cells/well for HCT116 and SW 620 cell lines (PDT = 20–24 h) and 4,000 cells/well for MCF-7 cell lines (PDT = 33 h). Tested agents were then added in five consecutive 10-fold dilutions (10^–8 to 10^–4 mol·L^–1) and incubated for further 72 h. Working dilutions were freshly prepared on the day of testing. The solvent (DMSO) was also tested for eventual inhibitory activity by adjusting its concentration to be the same as in working concentrations (maximal concentration of DMSO was 0.25%). After 72 h of incubation, the cell growth rate was evaluated by performing the MTT assay (Promega) which detects dehydrogenase activity in viable cells. The absorbency (OD, optical density) was measured on a microplate reader at 570 nm. Each test point was performed in quadruplicate in at least three individual experiments. The results are expressed as IC50, which is the concentration necessary for 50% of inhibition. […] Each result is a mean value from three separate experiments.

H 460 (lung carcinoma) = assay: Cytostatic activity, MTT assay; format: cell-based, human; conditions: read-out: Tumour cell growth/IC50 H 460
Protocol: as §3, §5

SW 620 (colon carcinoma) = assay: Cytostatic activity, MTT assay; format: cell-based, human; conditions: read-out: Tumour cell growth/IC50 SW 620
Protocol: as §3, §5

[6] = test system: HCT 116 (colon carcinoma); assay: Cytostatic activity, MTT assay; format: cell-based, human; conditions: read-out: Tumour cell growth/IC50 HCT 116
Protocol: as §3, §5

CaCo-2 cell cultures = assay: Uptake at apical side and release at basolateral side of CaCo-2 cell cultures; format: in vitro ADME, human; conditions: 100 µmol·L^–1 at apical side, 0-24 h, HPLC
Excerpt: Derivatives 2a, 3a and 4a have been examined for their efficiency of uptake at the apical site and subsequent delivery at the basolateral site of colon carcinoma CaCo-2 cell cultures. This model system can be used to predict the potential of a drug to show oral bioavailability. Sorafenib was included as the reference compound. […] The molecular basis of this phenomenon is yet unclear.
Figure 1 Release of the tested compounds at the basolateral side by CaCo-2 cell cultures. Hundred micromolar concentrations of the tested compounds were added at the apical side of confluent CaCo-2 cell cultures, and the appearance of the intact tested compound at the basolateral side was measured by HPLC analysis.
Human colon carcinoma CaCo-2 cells were seeded in the inner wells of a double-chamber-well-tray at 150,000 cells (0.5 mL) per 1 mL-well. The outer wells also contain 0.5 mL medium (without cells). After the cells were grown to confluency (~2 days) at 37 °C in a humidified CO2-controlled atmosphere, 100 µmol·L^–1 tested compound (final concentration) was added to the inner well, and the medium from the outer wells was replaced by 800 µL PBS (containing 10% foetal bovine serum). At different time points (i.e., 0, 2, 4, 6, 8 and 24 h), 50 µL was removed from the outer wells and mixed with 100 µL cold methanol. The mixture was left on ice for 10 min, centrifuged to remove the precipitate, and the supernatant was analysed by HPLC (reversed phase) to determine the drug concentration that appeared in the outer wells (reflecting basolateral drug efflux) in function of time.

23 cell lines = test system: 23 cell lines; parameters: method as in PMID 20672370; conditions: median over 23 cell lines; cited from earlier work

| Compound | IC50 [1] [µM] | IC50 [2] [µM] | IC50 [3] [µM] | IC50 (HeLa (cervix carcinoma); Homo sapiens, HeLa) [µM] | IC50 (L1210 (murine leukemia); Mus musculus, L1210) [µM] | IC50 (CEM (human lymphoma); Homo sapiens) [µM] | IC50 ([5]; Homo sapiens, Fibroblast) [µM] | IC50 (MCF-7 (breast carcinoma); Homo sapiens, MCF7, 72 h) [µM] | IC50 (H 460 (lung carcinoma); Homo sapiens, NCI-H460, 72 h) [µM] | IC50 (SW 620 (colon carcinoma); Homo sapiens, SW-620, 72 h) [µM] | IC50 ([6]; Homo sapiens, HCT-116, 72 h) [µM] | further results |
| --- | --- | --- | --- | --- | --- | --- | --- | --- | --- | --- | --- | --- |
| Nc1ccc(Oc2ccnc(C(=O)NCCc3ccccc3)c2)cc1 [Compound 3e, 4-(4-Aminophenoxy)-N-phenylethylpyridine-2-carboxamide] | > 100 | > 100 | 49.9 ± 17.9 | 39 ± 3 | 63 ± 8.9 | 42 ± 3 | > 100 | 34 ± 17 | 20 | 20 ± 7 | 25 ± 2 | IC50 [4]: 20 to 90 µM |
| O=C(Nc1ccc(Oc2ccnc(C(=O)NC3CCCC3)c2)cc1)Nc1ccc(Cl)c(C(F)(F)F)c1 [Compound 4a, 4-[4-[[4-Chloro-3-(trifluoromethyl)phenyl]carbamoylamino]phenoxy]-N-cyclopentyl-pyridine-2-carboxamide] | 12.5 ± 6.7 | 6.1 ± 0.7 | 7.7 ± 2.1 | 3.1 ± 0.6 | 4.2 ± 0.8 | 4.2 ± 0.6 | 2.8 | 4 ± 1 | 1 | 2 ± 0.4 | 3 ± 0.5 | Drug delivery at the basolateral site compared with sorafenib (CaCo-2 cell cultures): less efficient than the reference compound |
| CNC(=O)c1cc(Oc2ccc(NC(=O)Nc3ccc(Cl)c(C(F)(F)F)c3)cc2)ccn1 [Sorafenib, 4-[4-[[4-chloro-3-(trifluoromethyl)phenyl]carbamoylamino]phenoxy]-N-methylpyridine-2-carboxamide] | 8.6 ± 1.1 | 12 ± 7 | 7.1 ± 0.2 |  |  |  |  |  |  |  |  | IC50 (23 cell lines): 4.3 µM; IC50 (HeLa (cervix carcinoma)): 3.7 ± 0.6 µM; IC50 (L1210 (murine leukemia)): 4.1 µM; IC50 (CEM (human lymphoma)): 3.4 ± 0.5 µM; IC50 [5]: 7.5 ± 0.7 µM; IC50 (MCF-7 (breast carcinoma); 72 h): 3 ± 0.7 µM; IC50 (H 460 (lung carcinoma); 72 h): 3 ± 0.8 µM; IC50 (SW 620 (colon carcinoma); 72 h): 6 ± 1 µM; IC50 ([6]; 72 h): 3 ± 0.8 µM |
